One assay concerns the target T1, GANAB (Homo sapiens, UniProt Q14697).
T1 construct: endogenous enzyme in HEK293T cells (GBA2-expressing line); beta subunit not mentioned
T1 sequence (Q14697 29-944): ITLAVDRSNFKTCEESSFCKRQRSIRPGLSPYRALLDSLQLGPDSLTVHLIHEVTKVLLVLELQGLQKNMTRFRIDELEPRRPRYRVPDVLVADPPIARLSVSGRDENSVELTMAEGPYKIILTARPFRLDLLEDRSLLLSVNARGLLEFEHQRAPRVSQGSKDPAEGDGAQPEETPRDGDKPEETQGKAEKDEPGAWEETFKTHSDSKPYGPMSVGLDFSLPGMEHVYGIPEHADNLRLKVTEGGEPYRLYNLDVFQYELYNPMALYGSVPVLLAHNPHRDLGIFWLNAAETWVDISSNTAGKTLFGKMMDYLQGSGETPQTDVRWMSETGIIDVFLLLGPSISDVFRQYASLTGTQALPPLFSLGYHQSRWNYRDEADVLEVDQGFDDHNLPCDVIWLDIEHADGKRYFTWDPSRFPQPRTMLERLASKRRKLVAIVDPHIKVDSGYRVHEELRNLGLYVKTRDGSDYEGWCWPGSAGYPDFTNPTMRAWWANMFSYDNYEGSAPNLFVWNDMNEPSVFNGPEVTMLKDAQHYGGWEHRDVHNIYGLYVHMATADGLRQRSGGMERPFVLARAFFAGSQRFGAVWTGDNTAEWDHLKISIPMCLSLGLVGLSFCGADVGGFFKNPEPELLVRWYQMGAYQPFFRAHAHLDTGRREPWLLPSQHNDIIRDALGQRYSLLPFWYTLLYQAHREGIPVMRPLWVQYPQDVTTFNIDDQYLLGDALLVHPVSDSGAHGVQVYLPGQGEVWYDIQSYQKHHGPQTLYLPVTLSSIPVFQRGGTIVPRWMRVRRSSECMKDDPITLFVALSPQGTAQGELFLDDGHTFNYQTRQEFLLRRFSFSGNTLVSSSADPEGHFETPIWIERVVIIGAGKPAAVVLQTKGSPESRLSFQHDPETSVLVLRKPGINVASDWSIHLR
Briefly: intact cells treated, residual activity in lysate with 4MU-alpha-D-glucopyranoside. In kind it is cell-based. The conditions noted are these: 24 h treatment of intact HEK293T cells, assay pH 7.0.

The target of assay [1] is T2, recombinant human GBA (rGBA, imiglucerase) (Homo sapiens, UniProt P04062, R534H).
T2 construct: gene GBA1; imiglucerase (Sanofi Genzyme), mature secreted enzyme
T2 sequence (P04062 40-536 R534H): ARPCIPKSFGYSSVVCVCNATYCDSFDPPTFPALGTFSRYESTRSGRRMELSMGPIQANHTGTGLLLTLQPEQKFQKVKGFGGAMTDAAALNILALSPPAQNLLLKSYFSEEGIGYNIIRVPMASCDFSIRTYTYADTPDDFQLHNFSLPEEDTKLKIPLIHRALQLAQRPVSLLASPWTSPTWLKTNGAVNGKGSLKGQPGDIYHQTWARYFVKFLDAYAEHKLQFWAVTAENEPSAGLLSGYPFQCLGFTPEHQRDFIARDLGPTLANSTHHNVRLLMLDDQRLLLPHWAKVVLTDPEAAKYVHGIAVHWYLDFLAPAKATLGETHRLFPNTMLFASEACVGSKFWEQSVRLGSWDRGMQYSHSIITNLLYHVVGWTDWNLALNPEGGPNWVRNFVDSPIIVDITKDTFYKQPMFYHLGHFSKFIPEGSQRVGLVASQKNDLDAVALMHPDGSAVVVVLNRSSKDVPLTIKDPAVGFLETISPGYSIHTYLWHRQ
The assay can be described thus: residual activity, fluorogenic 4MU-glucoside assay. In kind it is biochemical. The conditions noted are these: covalent, irreversible, 180 min preincubation, pH 5.2, 37 °C, 0.2% taurocholate, 0.1% Triton X-100, 3.75 mM 4MU-beta-D-glucopyranoside. From the text:
residual activity, fluorogenic 4MU-glucoside assay on recombinant human GBA (rGBA, imiglucerase)

In another assay the target is T3, GBA (zebrafish larvae) (Danio rerio, UniProt E7EZM1).
T3 construct: gene gba1; endogenous enzyme in larvae, measured in larval lysate
T3 sequence (E7EZM1 20-518): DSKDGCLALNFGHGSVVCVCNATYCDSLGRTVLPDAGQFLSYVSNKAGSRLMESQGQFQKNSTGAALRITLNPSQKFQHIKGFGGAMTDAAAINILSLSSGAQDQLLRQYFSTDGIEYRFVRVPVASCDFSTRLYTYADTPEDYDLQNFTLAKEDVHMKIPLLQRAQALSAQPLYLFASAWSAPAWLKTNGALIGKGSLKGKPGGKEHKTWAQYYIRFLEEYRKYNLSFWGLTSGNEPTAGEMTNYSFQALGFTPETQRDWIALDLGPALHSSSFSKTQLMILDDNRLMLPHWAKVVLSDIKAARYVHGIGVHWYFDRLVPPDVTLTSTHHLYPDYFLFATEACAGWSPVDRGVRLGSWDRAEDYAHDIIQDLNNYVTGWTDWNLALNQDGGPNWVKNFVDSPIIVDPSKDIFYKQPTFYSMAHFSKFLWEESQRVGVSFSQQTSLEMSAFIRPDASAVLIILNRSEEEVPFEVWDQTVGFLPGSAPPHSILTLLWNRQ
The assay can be described thus: live larvae exposed, residual activity in lysate with 4MU-glucoside. The conditions noted are these: covalent, in vivo: concentration in egg water, 5 days at 28.5 °C, assay pH 5.2 with AMP-DNM. From the text: live larvae exposed, residual activity in lysate with 4MU-glucoside on GBA (zebrafish larvae)

For assay [2], the target named is T4, GUSB (lysosomal beta-glucuronidase) (Homo sapiens, UniProt P08236).
T4 construct: endogenous enzyme in HEK293T cells (GBA2-expressing line)
T4 sequence (P08236 23-651): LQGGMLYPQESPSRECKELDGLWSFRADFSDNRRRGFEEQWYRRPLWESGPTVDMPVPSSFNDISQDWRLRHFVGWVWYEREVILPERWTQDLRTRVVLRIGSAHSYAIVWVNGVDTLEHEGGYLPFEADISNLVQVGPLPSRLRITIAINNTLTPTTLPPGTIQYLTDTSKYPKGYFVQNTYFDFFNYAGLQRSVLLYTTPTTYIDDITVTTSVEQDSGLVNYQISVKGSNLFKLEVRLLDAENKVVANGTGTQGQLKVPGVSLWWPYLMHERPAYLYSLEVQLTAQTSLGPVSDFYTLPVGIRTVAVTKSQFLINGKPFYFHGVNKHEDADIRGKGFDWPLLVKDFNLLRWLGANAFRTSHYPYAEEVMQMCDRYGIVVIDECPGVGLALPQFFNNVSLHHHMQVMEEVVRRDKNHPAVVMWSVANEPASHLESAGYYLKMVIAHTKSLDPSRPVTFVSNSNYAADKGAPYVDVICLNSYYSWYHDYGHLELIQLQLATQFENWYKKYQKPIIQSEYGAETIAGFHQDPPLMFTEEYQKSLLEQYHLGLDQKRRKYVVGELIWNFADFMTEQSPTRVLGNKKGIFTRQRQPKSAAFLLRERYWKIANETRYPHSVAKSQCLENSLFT
The assay can be described thus: intact cells treated, residual activity in lysate with 4MU-beta-D-glucuronide. The assay is classed as cell-based. The conditions noted are these: 24 h treatment of intact HEK293T cells, assay pH 5.0.

[3] abbreviates: covalent, read-out: CBE / Enz. assay.

The values that follow come from publication PMC6850446, “In vivo inactivation of glycosidases by conduritol B epoxide and cyclophellitol as revealed by activity‐based protein profiling” (The Febs Journal, 2019).

Where two headings read alike, the source gives them in different places.

In the case of `OC1C(O)C(O)C2OC2C1O` (centres unmarked) [compound 1, conduritol B epoxide], the IC50 at GANAB (setting [3]) was found to be 1580 µM; in assay [1] (read-out: CBE / Enz. assay), 4.28 µM; at GBA (zebrafish larvae) (read-out: CBE / Enz. assay), 58.5 µM; in assay [2] (setting [3]), 607 µM.
As for `OC[C@@H]1[C@@H](O)[C@H](O)[C@@H](O)[C@@H]2O[C@H]12` [compound 2, cyclophellitol], the IC50 on GANAB (read-out: apparent IC50) is greater than 10 µM; in assay [1] (read-out: CP / Enz. assay) it was 0.03 µM; on GBA (zebrafish larvae) (read-out: CP / Enz. assay) it was 0.13 µM; in assay [2] (read-out: apparent IC50), greater than 10 µM.
